In patent publication US8927587B2, “Chemical compounds” (Pfizer Limited, priority 2012, dated 2015):

Molecular target: T1, hNav1.8 (Homo sapiens, UniProt Q9Y5Y9)
T1 construct: host or cells: HEK cells, stably transfected
Experiment: hNav1.8 whole-cell patch-clamp electrophysiology (conventional or PatchXpress 7000) in stably transfected HEK cells
Assay type: cell-based
Conditions: not given
Excerpt: The ability of the benzimidazole derivatives of the formula (I) to inhibit the Nav1.8 channel may be measured using the assay described below.
HEK cells stably transfected with hNav1.8, purchased from Millipore (Millipore Corp., Billerica, Mass. 01821), were maintained according to manufacturer's instructions. For electrophysiological studies, cells were removed from the culture flask by brief trypsinization and re-plated at low density onto glass cover slips. Cells were typically used for electrophysiological experiments within 24 to 72 h after plating.
Cover slips containing HEK cells expressing hNav1.8 were placed in a bath on the stage of an inverted microscope and perfused (approximately 1 ml/min) with extracellular solution of the following composition: 138 mM NaCl, 2 mM CaCl2, 5.4 mM KCl, 1 mM MgCl2, 10 mM glucose, and 10 mM HEPES, pH 7.4, with NaOH. […] The osmolarity of the extracellular and intracellular solutions was 300 mOsm/kg and 295 mOsm/kg, respectively. All recordings were made at room temperature (22-24° C.) using AXOPATCH 200B amplifiers and PCLAMP software (Axon Instruments, Burlingame, Calif.).
hNav1.8 currents in HEK cells were measured using the whole-cell configuration of the patch-clamp technique (Hamill et al., 1981). Uncompensated series resistance was typically 2 to 5 mega ohms and >85% series resistance compensation was routinely achieved. As a result, voltage errors were negligible and no correction was applied. Current records were acquired at 20 to 50 KHz and filtered at 5 to 10 KHz.
HEK cells stably transfected with hNav1.8 were viewed under Hoffman contrast optics and placed in front of an array of flow pipes emitting either control or compound-containing extracellular solutions. All compounds were dissolved in dimethyl sulfoxide to make 10 mM stock solutions, which were then diluted into extracellular solution to attain the final concentrations desired.
The voltage-dependence of inactivation was determined by applying a series of depolarizing prepulses (8 sec long in 10 mV increments) from a negative holding potential. The voltage was then immediately stepped to 0 mV to assess the magnitude of the sodium current. Currents elicited at 0 mV were plotted as a function of prepulse potential to allow estimation of the voltage at which 50% of the channels were inactivated (midpoint of inactivation or V1/2). Compounds were tested for their ability to inhibit hNav1.8 sodium channels by activating the channel with a 20 msec voltage step to 0 mV following an 8 second conditioning prepulse to the empirically determined V1/2. Compound effect (% inhibition) was determined by difference in current amplitude before and after application of test compounds. For ease of comparison, “estimated IC50” values were calculated from single point electrophysiology data by the following equation, (tested concentration, uM)×(100-% inhibition/% inhibition). Inhibition values<20% and >80% were excluded from the calculation.
In some cases electrophysiological assays were conducted with PatchXpress 7000 hardware and associated software (Molecular Devices Corp). All assay buffers and solutions were identical to those used in conventional whole-cell voltage clamp experiments described above. hNav1.8 cells were grown as above to 50%-80% confluency and harvested by trypsinization. Trypsinized cells were washed and resuspended in extracellular buffer at a concentration of 1×10^6 cells/ml. The onboard liquid handling facility of the PatchXpress was used for dispensing cells and application of test compounds. Determination of the voltage midpoint of inactivation was as described for conventional whole-cell recordings. Cells were then voltage-clamped to the empirically determined V1/2 and current was activated by a 20 msec voltage step to 0 mV.
Estimated IC50 values for the compounds of formula (I) exemplified above are as follows. […]

T1 sequence (Q9Y5Y9 whole entry): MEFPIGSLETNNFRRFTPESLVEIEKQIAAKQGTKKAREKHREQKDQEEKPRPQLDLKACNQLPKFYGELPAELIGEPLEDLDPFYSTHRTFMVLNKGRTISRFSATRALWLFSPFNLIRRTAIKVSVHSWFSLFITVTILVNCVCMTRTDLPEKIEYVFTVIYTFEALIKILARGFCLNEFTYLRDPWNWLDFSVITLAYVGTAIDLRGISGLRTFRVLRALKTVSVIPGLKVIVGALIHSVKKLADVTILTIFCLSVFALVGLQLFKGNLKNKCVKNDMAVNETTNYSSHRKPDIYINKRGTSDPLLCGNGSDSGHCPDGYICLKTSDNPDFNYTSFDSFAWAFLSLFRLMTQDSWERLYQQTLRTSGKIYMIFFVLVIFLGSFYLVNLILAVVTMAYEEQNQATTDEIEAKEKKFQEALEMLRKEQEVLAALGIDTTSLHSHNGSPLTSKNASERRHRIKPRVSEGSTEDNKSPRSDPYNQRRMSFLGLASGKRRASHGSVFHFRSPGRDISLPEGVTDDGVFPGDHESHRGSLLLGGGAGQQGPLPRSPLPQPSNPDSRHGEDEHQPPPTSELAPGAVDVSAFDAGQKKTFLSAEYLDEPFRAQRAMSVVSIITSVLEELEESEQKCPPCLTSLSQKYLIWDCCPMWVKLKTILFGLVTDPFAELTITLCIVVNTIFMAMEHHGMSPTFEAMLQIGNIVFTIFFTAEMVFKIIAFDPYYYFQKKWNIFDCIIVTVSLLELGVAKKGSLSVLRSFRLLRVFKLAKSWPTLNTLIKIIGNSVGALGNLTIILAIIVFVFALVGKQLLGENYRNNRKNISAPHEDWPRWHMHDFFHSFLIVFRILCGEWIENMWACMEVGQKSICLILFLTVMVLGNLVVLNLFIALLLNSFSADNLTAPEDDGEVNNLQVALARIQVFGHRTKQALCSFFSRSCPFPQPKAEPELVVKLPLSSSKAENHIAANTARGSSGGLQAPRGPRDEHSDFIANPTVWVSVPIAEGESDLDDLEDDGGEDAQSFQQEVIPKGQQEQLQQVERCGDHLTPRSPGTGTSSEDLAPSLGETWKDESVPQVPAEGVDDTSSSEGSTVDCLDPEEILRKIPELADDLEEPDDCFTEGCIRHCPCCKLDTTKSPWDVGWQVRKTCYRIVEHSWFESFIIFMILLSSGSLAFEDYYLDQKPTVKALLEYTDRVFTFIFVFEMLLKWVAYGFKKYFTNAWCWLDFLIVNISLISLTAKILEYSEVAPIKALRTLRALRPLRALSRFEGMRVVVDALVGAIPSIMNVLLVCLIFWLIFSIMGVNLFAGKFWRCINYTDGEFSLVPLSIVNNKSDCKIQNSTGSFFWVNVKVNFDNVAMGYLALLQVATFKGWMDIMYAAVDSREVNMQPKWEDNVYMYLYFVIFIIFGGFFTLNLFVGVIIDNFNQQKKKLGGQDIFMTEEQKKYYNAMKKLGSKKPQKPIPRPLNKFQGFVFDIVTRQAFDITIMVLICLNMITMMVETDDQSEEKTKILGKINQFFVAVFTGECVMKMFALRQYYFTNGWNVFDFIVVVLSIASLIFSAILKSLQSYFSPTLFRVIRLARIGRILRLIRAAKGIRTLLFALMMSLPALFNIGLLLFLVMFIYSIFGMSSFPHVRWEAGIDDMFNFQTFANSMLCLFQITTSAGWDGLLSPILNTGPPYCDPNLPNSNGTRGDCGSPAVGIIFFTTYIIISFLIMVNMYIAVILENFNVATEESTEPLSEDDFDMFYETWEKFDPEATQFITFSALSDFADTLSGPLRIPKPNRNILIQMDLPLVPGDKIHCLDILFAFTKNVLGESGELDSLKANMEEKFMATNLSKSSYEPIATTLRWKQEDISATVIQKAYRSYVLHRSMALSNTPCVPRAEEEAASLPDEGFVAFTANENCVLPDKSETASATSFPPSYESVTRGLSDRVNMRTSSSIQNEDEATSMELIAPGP

Q: How did the IC50 turn out when `CC(C)(C)c1ccc2[nH]c(C3(N)CCCCC3)nc2c1` [Example 17, 1-(5-tert-Butyl-1H-benzimidazol-2-yl)cyclohexanamine] was run?
A: The IC50 was 468 nM.

Same assay, conditions: estimated IC50 calculated from single point % inhibition; HEK cells expressing hNav1.8; 8 sec prepulse to V1/2, 20 msec step to 0 mV; average of replicates; read-out: Nav1.8 EIC50

Q: With `C[C@@H](C(N)=O)[C@H](N)c1nc2cc(C(C)(C)C)ccc2[nH]1` (single isomer, unassigned) [Example 103] as the molecule, how does the IC50 read?
A: Its IC50 is 15.4 nM.

Q: With `C[C@H](C(N)=O)[C@H](N)c1nc2cc(C(C)(C)C)ccc2[nH]1` (single isomer, unassigned) [Example 104] as the molecule, how does the IC50 read?
A: The IC50 was 1580 nM.

Q: `N#Cc1ccc(-c2ccc3[nH]c([C@@H]4C[C@@H](O)CN4)nc3c2)cc1` (stereo in doubt) [Example 46, 4-{2-[(2S,4R)-4-Hydroxypyrrolidin-2-yl]-1H-benzimidazol-5-yl}benzonitrile] was tested. Which IC50 did it give?
A: The IC50 was 713 nM.

Q: Which IC50 does the source give for `CC(C)CC[C@H](N)c1nc2cc(C(C)(C)C)ccc2[nH]1` [Example 1, (1S)-1-(5-tert-Butyl-1H-benzimidazol-2-yl)-4-methylpentan-1-amine] here?
A: The IC50 was 127 nM.

Q: For `CC(C)(C)c1ccc2[nH]c(C3(N)Cc4ccccc4C3)nc2c1` [Example 2, 2-(5-tert-Butyl-1H-benzimidazol-2-yl)-2,3-dihydro-1H-inden-2-amine], which IC50 is on record?
A: Its IC50 is 76 nM.

Q: With `CC(C)(C)c1ccc2[nH]c([C@@H](N)C3CCCC3)nc2c1` [Example 3, (S)-1-(5-tert-Butyl-1H-benzimidazol-2-yl)-1-cyclopentylmethanamine] as the molecule, how does the IC50 read?
A: Its IC50 is 12.5 nM.

Q: How did the IC50 turn out when `CC(C)(C)c1ccc2[nH]c(C3(N)CCC3)nc2c1` [Example 4, 1-(5-tert-Butyl-1H-benzimidazol-2-yl)cyclobutanamine] was run?
A: The IC50 was 447 nM.

Q: `CC(C)[C@H](N)c1nc2cc(C(C)(C)C)ccc2[nH]1` [Example 5, (1S)-1-(5-tert-Butyl-1H-benzimidazol-2-yl)-2-methylpropan-1-amine] was tested. Which IC50 did it give?
A: Its IC50 is 364 nM.

Q: For `CC(C)(C)c1ccc2[nH]c([C@@H](N)C(C)(C)C)nc2c1` [Example 6, (1S)-1-(5-tert-Butyl-1H-benzimidazol-2-yl)-2,2-dimethylpropan-1-amine], which IC50 is on record?
A: The IC50 was 433 nM.

Q: For `C[C@H](N)c1nc2cc(C(C)(C)C)ccc2[nH]1` [Example 7, (1S)-1-(5-tert-Butyl-1H-benzimidazol-2-yl)ethanamine], which IC50 is on record?
A: Its IC50 is 439 nM.

Q: How did the IC50 turn out when `CC(C)C[C@@H](N)c1nc2cc(C(C)(C)C)ccc2[nH]1` [Example 8, (1R)-1-(5-tert-Butyl-1H-benzimidazol-2-yl)-3-methylbutan-1-amine] was run?
A: Its IC50 is 108 nM.

Q: For `CC(C)[C@@H](N)c1nc2cc(C(C)(C)C)ccc2[nH]1` [Example 9, (1R)-1-(5-tert-Butyl-1H-benzimidazol-2-yl)-2-methylpropan-1-amine], which IC50 is on record?
A: Its IC50 is 347 nM.

Q: `C[C@@H](N)c1nc2cc(C(C)(C)C)ccc2[nH]1` [Example 10, (1R)-1-(5-tert-Butyl-1H-benzimidazol-2-yl)ethanamine] was tested. Which IC50 did it give?
A: The IC50 was 607 nM.

Q: Which IC50 does the source give for `CCCC[C@H](N)c1nc2cc(C(C)(C)C)ccc2[nH]1` [Example 11, (1S)-1-(5-tert-Butyl-1H-benzimidazol-2-yl)pentan-1-amine] here?
A: Its IC50 is 29.7 nM.

Q: Which IC50 does the source give for `COC[C@H](N)c1nc2cc(C(C)(C)C)ccc2[nH]1` [Example 12, (1R)-1-(5-tert-Butyl-1H-benzimidazol-2-yl)-2-methoxyethanamine] here?
A: The IC50 was 243 nM.

Q: For `CC(C)(C)c1ccc2[nH]c(C3(N)CCCC3)nc2c1` [Example 13, 1-(5-tert-Butyl-1H-benzimidazol-2-yl)cyclopentanamine], which IC50 is on record?
A: The IC50 was 496 nM.

Q: `CC(C)C[C@H](N)c1nc2cc(C(C)(C)C)ccc2[nH]1` [Example 14, (1S)-1-(5-tert-Butyl-1H-benzimidazol-2-yl)-3-methylbutan-1-amine] was tested. Which IC50 did it give?
A: Its IC50 is 476 nM.

Q: `CC(C)(C)c1ccc2[nH]c([C@H](N)C(C)(C)C)nc2c1` [Example 15, (1R)-1-(5-tert-Butyl-1H-benzimidazol-2-yl)-2,2-dimethylpropan-1-amine] was tested. Which IC50 did it give?
A: The IC50 was 123 nM.

Q: `C[C@H](O)[C@@H](N)c1nc2cc(C(C)(C)C)ccc2[nH]1` [Example 16, (1S,2S)-1-Amino-1-(5-tert-butyl-1H-benzimidazol-2-yl)propan-2-ol] was tested. Which IC50 did it give?
A: The IC50 was 2510 nM.

Q: Which IC50 does the source give for `C[C@@H](O)[C@@H](N)c1nc2cc(C(C)(C)C)ccc2[nH]1` [Example 18, (1S,2R)-1-Amino-1-(5-tert-butyl-1H-benzimidazol-2-yl)propan-2-ol] here?
A: The IC50 was 487 nM.

Q: How did the IC50 turn out when `C[C@H](O)[C@H](N)c1nc2cc(C(C)(C)C)ccc2[nH]1` [Example 19, (1R,2S)-1-Amino-1-(5-tert-butyl-1H-benzimidazol-2-yl)propan-2-ol] was run?
A: The IC50 was 176 nM.

Q: How did the IC50 turn out when `CC(C)(C)c1ccc2[nH]c([C@@H](N)CO)nc2c1` [Example 20, (2R)-2-Amino-2-(5-tert-butyl-1H-benzimidazol-2-yl)ethanol] was run?
A: The IC50 was 106 nM.

Q: How did the IC50 turn out when `CO[C@H](C)[C@H](N)c1nc2cc(C(C)(C)C)ccc2[nH]1` [Example 21, (1R,2R)-1-(5-tert-Butyl-1H-benzimidazol-2-yl)-2-methoxypropan-1-amine] was run?
A: Its IC50 is 32.6 nM.

Q: `CC(C)(C)c1ccc2[nH]c([C@@H]3C[C@H](O)CN3)nc2c1` [Example 22, (3S,5S)-5-(5-tert-Butyl-1H-benzimidazol-2-yl)pyrrolidin-3-ol] was tested. Which IC50 did it give?
A: The IC50 was 108 nM.

Q: For `CC[C@@H](C)[C@@H](N)c1nc2cc(C(C)(C)C)ccc2[nH]1` [Example 23, (1R,2R)-1-(5-tert-Butyl-1H-benzimidazol-2-yl)-2-methylbutan-1-amine], which IC50 is on record?
A: The IC50 was 44.6 nM.

Q: How did the IC50 turn out when `CC(C)(C)c1ccc2[nH]c([C@H]3C[C@@H](O)CN3)nc2c1` [Example 24, (3R,5R)-5-(5-tert-Butyl-1H-benzimidazol-2-yl)pyrrolidin-3-ol] was run?
A: Its IC50 is 58 nM.

Q: How did the IC50 turn out when `CC(C)(C)c1ccc2[nH]c([C@H]3CCCN3)nc2c1` [Example 25, 5-tert-Butyl-2-[(2R)-pyrrolidin-2-yl]-1H-benzimidazole] was run?
A: The IC50 was 74.2 nM.

Q: Which IC50 does the source give for `CC(C)(C)c1ccc2[nH]c([C@@H]3C[C@@H](O)CN3)nc2c1` [Example 26, (3R,5S)-5-(5-tert-Butyl-1H-benzimidazol-2-yl)pyrrolidin-3-ol] here?
A: The IC50 was 31.5 nM.

Q: For `COC(C)(C)C(N)c1nc2cc(C(C)(C)C)ccc2[nH]1` (centres unmarked) [Example 27, 1-(5-tert-Butyl-1H-benzimidazol-2-yl)-2-methoxy-2-methylpropan-1-amine], which IC50 is on record?
A: The IC50 was 153 nM.

Q: With `CC(C)(C)c1ccc2[nH]c([C@H](N)CC(N)=O)nc2c1` [Example 28, (3R)-3-Amino-3-(5-tert-butyl-1H-benzimidazol-2-yl)propanamide] as the molecule, how does the IC50 read?
A: The IC50 was 130 nM.

Q: With `CCC(C)(C)c1ccc2[nH]c([C@@H]3C[C@H](O)CN3)nc2c1` [Example 29, (3S,5S)-5-[5-(2-Methylbutan-2-yl)-1H-benzimidazol-2-yl]pyrrolidin-3-ol] as the molecule, how does the IC50 read?
A: Its IC50 is 390 nM.

Q: With `CCC(C)(C)c1ccc2[nH]c([C@@H](N)CC(N)=O)nc2c1` [Example 30, (3S)-3-Amino-3-[5-(2-methylbutan-2-yl)-1H-benzimidazol-2-yl]propanamide] as the molecule, how does the IC50 read?
A: The IC50 was 148 nM.

Q: With `CCC(C)(C)c1ccc2[nH]c([C@@H](N)COC)nc2c1` [Example 31, (1R)-2-Methoxy-1-[5-(2-methylbutan-2-yl)-1H-benzimidazol-2-yl]ethanamine] as the molecule, how does the IC50 read?
A: The IC50 was 125 nM.

Q: How did the IC50 turn out when `N#Cc1ccc(-c2ccc3[nH]c([C@@H](N)C4CCCC4)nc3c2)cc1` [Example 32, 4-{2-[(S)-Amino(cyclopentyl)methyl]-1H-benzimidazol-5-yl}benzonitrile] was run?
A: Its IC50 is 163 nM.

Q: How did the IC50 turn out when `CCC(C)(C)c1ccc2[nH]c(C3(N)Cc4ccccc4C3)nc2c1` [Example 33, 2-[5-(2-Methylbutan-2-yl)-1H-benzimidazol-2-yl]-2,3-dihydro-1H-inden-2-amine] was run?
A: Its IC50 is 266 nM.

Q: For `N#Cc1ccc(-c2ccc3[nH]c(C4(N)Cc5ccccc5C4)nc3c2)cc1` [Example 34, 4-[2-(2-Amino-2,3-dihydro-1H-inden-2-yl)-1H-benzimidazol-5-yl]benzonitrile], which IC50 is on record?
A: The IC50 was 30.6 nM.

Q: With `CCC(C)(C)c1ccc2[nH]c([C@H](C)N)nc2c1` [Example 35, (1S)-1-[5-(2-Methylbutan-2-yl)-1H-benzimidazol-2-yl]ethanamine] as the molecule, how does the IC50 read?
A: Its IC50 is 171 nM.
